Measured values reported in article PMC4178217, “Quinoline 3-sulfonamides inhibit lactate dehydrogenase A and reverse aerobic glycolysis in cancer cells” (Cancer & Metabolism, 2013).
“Also recorded” adds a separate entry of the source. Read-outs that look alike come from different tables or passages of the source.

Legend:
[1] = tested on: Snu398 cells; experiment: Fructose-1,6-bisphosphate (FBP) analysis; assay type: cell-based, human; settings: Snu398, 10 μM, 24 h R10 or 6 h low glucose
Description: Treatment was carried out for 24 h in R10 or for 6 h in low glucose medium. At the end of this treatment, cells were washed, lifted by trypsinization, counted, and cell pellets were submitted for analysis of FBP to Apredica, Inc.

[2] = target: Adenosine Receptor a2A (Homo sapiens, UniProt P29274); experiment: Adenosine Receptor a2A ANT; settings: antagonist; read-out: pIC50 Adenosine Receptor a2A ANT (converted)
Adenosine Receptor a2A, sequence (P29274 whole entry, species assumed): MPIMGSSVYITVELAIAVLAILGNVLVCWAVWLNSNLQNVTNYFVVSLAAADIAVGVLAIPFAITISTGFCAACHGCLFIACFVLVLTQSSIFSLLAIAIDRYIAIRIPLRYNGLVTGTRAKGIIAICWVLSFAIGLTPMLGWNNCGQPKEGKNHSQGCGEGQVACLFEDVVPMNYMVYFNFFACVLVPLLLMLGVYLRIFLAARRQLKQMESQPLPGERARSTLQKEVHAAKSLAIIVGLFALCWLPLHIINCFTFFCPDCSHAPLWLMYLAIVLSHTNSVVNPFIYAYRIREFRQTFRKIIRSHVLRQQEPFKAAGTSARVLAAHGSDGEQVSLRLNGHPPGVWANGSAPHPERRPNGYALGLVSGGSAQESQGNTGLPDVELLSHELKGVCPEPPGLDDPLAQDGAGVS
Excerpt: (§1) ANT = antagonist (pIC50), AG = agonist (pEC50). pIC50 and pEC50 are the negative logarithms10 of IC50 and EC50, respectively. Click here for file

[3] = target: Adrenergic Receptor b2 (Homo sapiens, UniProt P07550); experiment: Adrenergic Receptor b2 AG; settings: agonist; read-out: pEC50 Adrenergic Receptor b2 AG (converted)
Adrenergic Receptor b2, sequence (P07550 whole entry): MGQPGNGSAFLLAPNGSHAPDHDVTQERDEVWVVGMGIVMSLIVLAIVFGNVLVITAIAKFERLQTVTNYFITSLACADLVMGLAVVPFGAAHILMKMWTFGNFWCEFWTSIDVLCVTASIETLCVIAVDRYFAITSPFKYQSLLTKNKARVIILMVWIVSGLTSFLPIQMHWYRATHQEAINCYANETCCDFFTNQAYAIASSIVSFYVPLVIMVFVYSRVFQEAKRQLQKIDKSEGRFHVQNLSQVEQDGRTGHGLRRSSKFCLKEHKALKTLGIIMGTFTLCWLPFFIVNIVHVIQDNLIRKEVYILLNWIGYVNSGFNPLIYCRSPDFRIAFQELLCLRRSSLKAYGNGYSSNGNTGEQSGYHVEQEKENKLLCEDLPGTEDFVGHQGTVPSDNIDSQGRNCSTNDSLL
Excerpt: as §1

[4] = target: Dopamin Receptor D2 (Homo sapiens, UniProt P14416); experiment: Dopamin receptor D2 ANT; settings: antagonist; read-out: pIC50 Dopamin receptor D2 ANT (converted)
Excerpt: as §1

[5] = target: T1, Muscarinic Receptor M1 (Homo sapiens, UniProt P11229); experiment: Muscarinic Receptor M1 AG; settings: agonist; read-out: pEC50 Muscarinic Receptor M1 AG (converted)
T1 sequence (P11229 1-460): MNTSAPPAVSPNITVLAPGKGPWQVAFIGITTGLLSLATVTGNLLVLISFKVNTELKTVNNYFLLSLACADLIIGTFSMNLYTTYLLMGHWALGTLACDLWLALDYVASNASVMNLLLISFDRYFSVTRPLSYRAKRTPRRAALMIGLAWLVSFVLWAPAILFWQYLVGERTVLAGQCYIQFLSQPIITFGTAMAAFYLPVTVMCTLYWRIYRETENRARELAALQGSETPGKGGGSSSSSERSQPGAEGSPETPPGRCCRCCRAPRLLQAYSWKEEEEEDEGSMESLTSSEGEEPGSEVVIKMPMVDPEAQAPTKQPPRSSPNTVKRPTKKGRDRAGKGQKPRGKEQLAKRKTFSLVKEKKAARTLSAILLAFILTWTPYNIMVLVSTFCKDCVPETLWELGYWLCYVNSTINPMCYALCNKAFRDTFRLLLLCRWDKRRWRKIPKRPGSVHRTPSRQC
Excerpt: as §1

[6] = target: T2, Muscarinic Receptor M2 (Homo sapiens, UniProt P08172); experiment: Muscarinic Receptor M2 AG; settings: agonist; read-out: pEC50 Muscarinic Receptor M2 AG (converted)
T2 sequence (P08172 1-466): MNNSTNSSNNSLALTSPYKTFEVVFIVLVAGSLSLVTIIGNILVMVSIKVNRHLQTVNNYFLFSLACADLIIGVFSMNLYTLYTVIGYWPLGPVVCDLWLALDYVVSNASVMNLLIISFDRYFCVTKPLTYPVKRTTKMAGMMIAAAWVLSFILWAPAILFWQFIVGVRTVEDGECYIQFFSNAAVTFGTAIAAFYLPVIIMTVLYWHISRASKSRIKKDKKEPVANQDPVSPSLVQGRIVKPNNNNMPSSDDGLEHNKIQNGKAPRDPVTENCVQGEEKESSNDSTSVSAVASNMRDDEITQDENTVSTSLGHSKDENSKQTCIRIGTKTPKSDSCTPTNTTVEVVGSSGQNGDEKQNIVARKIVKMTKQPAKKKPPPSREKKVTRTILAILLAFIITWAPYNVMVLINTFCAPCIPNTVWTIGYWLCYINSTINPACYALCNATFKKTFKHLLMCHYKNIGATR
Excerpt: as §1

[7] = target: Nicotinic Ach Receptor A1 (Homo sapiens, UniProt P02708+P07510+Q07001); experiment: Nicotinic Ach Receptor A1 ANT
Nicotinic Ach Receptor A1, sequence (P02708 21-457): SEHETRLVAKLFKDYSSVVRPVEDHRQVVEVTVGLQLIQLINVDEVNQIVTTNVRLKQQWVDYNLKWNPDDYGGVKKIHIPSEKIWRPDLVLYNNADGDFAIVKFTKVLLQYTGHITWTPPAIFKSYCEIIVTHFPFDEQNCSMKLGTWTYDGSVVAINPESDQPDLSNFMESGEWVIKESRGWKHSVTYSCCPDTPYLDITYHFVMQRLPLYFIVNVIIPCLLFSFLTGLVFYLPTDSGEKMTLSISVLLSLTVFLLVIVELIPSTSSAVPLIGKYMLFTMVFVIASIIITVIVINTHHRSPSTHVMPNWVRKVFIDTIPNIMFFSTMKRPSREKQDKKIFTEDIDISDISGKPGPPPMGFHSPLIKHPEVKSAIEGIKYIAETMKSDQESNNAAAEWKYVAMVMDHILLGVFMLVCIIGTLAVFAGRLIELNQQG
Nicotinic Ach Receptor A1, sequence (P11230 24-501 partner): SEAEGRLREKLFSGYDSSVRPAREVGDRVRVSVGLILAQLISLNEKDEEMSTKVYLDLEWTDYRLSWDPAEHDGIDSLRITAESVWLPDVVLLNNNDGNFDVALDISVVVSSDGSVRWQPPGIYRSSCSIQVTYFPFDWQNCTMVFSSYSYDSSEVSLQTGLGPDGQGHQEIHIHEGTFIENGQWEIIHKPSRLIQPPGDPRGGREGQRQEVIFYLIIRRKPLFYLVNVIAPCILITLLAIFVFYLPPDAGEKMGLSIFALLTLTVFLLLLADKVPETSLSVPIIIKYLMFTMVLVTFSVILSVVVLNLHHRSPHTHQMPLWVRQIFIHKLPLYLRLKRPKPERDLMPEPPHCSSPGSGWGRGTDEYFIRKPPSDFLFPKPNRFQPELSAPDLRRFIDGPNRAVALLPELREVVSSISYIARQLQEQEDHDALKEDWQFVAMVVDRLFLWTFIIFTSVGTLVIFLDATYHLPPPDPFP
Nicotinic Ach Receptor A1, sequence (Q07001 22-517): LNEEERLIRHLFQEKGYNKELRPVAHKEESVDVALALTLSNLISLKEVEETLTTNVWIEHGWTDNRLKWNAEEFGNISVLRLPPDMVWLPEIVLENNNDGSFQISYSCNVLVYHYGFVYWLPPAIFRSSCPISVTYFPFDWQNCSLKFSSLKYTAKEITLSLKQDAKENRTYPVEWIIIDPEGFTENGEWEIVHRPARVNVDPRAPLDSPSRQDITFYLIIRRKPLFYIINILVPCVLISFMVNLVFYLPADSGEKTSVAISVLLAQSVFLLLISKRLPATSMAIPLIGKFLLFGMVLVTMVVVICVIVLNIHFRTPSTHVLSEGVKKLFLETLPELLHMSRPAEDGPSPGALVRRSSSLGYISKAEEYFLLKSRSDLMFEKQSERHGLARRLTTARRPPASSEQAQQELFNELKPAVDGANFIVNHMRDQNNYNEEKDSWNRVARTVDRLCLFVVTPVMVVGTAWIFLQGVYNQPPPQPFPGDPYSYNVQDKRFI
Nicotinic Ach Receptor A1, sequence (P07510 23-517): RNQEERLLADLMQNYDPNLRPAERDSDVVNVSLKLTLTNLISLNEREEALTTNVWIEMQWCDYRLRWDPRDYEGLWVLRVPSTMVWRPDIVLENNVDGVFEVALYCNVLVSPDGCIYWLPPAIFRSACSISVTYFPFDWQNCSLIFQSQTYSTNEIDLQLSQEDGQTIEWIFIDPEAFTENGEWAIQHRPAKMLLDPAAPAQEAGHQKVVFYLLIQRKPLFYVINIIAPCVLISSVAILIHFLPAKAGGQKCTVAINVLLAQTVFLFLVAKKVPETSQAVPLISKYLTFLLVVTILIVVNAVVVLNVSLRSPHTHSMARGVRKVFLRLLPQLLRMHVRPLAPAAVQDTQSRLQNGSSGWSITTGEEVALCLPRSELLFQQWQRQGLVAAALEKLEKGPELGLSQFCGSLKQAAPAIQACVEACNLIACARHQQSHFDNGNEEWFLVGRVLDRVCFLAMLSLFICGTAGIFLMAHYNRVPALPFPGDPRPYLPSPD
Excerpt: as §1

[8] = target: Norepinephrin Transporter (Homo sapiens, UniProt P23975); experiment: Norepinephrin Transporter ANT; settings: antagonist; read-out: pIC50 Norepinephrin Transporter ANT (converted)
Norepinephrin Transporter, sequence (P23975 whole entry): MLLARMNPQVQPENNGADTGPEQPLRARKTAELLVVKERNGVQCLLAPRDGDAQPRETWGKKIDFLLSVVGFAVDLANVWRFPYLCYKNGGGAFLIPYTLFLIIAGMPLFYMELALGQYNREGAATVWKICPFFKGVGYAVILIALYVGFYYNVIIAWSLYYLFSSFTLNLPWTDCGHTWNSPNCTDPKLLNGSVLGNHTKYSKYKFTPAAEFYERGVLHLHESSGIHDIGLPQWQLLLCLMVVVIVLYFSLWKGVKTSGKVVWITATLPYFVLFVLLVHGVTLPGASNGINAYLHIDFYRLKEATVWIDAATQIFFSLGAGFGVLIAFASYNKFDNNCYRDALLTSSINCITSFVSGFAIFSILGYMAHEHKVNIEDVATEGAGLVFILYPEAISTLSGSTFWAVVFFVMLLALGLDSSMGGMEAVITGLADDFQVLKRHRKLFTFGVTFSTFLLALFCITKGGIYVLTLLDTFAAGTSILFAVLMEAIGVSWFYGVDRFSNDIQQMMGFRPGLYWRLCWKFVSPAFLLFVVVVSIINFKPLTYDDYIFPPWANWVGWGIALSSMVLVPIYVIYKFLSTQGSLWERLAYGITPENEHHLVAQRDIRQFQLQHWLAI
Excerpt: as §1

[9] = target: Opioid Receptor k (Homo sapiens, UniProt P41145); experiment: Opioid Receptor k AG; settings: agonist; read-out: pEC50 Opioid Receptor k AG (converted)
Excerpt: as §1

[10] = target: Opioid Receptor m (Homo sapiens, UniProt P35372); experiment: Opioid Receptor m AG; settings: agonist; read-out: pEC50 Opioid Receptor m AG (converted)
Opioid Receptor m, sequence (P35372 whole entry): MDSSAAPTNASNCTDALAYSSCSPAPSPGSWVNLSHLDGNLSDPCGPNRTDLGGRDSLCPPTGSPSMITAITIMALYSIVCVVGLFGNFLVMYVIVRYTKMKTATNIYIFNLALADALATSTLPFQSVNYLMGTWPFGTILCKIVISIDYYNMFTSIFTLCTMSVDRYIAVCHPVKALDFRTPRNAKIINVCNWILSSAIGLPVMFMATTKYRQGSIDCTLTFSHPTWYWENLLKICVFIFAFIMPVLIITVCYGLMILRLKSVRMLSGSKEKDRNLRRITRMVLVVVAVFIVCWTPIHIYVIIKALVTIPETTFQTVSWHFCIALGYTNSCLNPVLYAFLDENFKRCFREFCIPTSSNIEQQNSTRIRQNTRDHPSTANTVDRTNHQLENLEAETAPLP
Excerpt: as §1

[11] = target: Potassium Channel Kv1.5 (Homo sapiens, UniProt P22460); experiment: Potassium Channel Kv1.5 ANT; settings: antagonist; read-out: pIC50 Potassium Channel Kv1.5 ANT (converted)
Excerpt: as §1

[12] = target: T3, Serotonin Receptor 5HT2A (Homo sapiens, UniProt P28223); experiment: Serotonin Receptor 5HT2A AG; settings: agonist; read-out: pEC50 Serotonin Receptor 5HT2A AG (converted)
T3 sequence (P28223 whole entry): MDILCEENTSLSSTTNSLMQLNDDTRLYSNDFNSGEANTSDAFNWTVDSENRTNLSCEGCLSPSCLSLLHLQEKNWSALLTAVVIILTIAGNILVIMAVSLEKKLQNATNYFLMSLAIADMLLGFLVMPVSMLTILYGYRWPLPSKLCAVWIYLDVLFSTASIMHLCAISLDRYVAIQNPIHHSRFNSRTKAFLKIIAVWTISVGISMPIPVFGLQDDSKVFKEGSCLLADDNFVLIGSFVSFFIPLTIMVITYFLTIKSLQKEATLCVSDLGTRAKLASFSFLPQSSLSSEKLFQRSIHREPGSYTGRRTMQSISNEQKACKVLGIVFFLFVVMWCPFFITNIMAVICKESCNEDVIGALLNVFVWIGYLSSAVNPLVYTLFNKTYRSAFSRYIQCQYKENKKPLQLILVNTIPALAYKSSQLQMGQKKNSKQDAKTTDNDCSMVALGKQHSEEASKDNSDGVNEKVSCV
Excerpt: as §1

[13] = target: T3, Serotonin Receptor 5HT2A; experiment: Serotonin Receptor 5HT2A ANT; settings: antagonist; read-out: pIC50 Serotonin Receptor 5HT2A ANT (converted)
Excerpt: as §1

[14] = target: T4, Serotonin Receptor 5HT2C (Homo sapiens, UniProt P28335); experiment: Serotonin Receptor 5HT2C AG; settings: agonist; read-out: pEC50 Serotonin Receptor 5HT2C AG (converted)
T4 sequence (P28335 33-458): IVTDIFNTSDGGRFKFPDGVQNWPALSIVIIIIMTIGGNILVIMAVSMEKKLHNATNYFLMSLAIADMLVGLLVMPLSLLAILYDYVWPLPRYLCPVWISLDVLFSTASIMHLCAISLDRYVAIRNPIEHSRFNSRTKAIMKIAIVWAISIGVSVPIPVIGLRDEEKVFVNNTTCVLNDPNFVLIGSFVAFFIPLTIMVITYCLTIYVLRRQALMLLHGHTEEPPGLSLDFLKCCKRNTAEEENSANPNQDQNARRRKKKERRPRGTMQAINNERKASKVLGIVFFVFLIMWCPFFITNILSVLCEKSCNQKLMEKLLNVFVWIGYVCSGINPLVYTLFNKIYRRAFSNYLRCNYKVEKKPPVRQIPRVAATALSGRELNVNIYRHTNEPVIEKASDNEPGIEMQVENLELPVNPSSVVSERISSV
Excerpt: as §1

[15] = target: T4, Serotonin Receptor 5HT2C; experiment: Serotonin Receptor 5HT2C ANT; settings: antagonist; read-out: pIC50 Serotonin Receptor 5HT2C ANT (converted)
Excerpt: as §1

[16] = target: Serotonin Transporter (Homo sapiens, UniProt P31645); experiment: Serotonin Transporter ANT; settings: antagonist; read-out: pIC50 Serotonin Transporter ANT (converted)
Serotonin Transporter, sequence (P31645 whole entry): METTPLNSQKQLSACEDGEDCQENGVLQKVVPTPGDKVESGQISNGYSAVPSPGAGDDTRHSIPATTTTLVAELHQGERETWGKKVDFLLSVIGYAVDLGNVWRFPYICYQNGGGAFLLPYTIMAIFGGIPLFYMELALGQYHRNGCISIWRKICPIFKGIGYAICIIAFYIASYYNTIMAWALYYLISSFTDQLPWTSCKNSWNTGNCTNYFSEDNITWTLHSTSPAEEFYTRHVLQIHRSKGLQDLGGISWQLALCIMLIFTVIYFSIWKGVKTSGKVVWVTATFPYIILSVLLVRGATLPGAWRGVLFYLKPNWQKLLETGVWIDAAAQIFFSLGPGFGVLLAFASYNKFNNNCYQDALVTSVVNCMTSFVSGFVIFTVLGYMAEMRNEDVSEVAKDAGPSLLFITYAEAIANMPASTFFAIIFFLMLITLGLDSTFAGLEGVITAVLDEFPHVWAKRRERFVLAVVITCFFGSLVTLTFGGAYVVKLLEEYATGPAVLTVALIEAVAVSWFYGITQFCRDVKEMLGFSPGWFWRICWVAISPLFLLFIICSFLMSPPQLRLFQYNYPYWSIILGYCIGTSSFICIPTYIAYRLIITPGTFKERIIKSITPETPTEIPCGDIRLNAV
Excerpt: as §1

Compound	intracellular fructose-1,6-bisphosphate (FBP) level [1]	IC50 [2]	EC50 [3]	IC50 [4]	EC50 [5]	EC50 [6]	IC50 ([7]; antagonist, read-out: pIC50 Nicotinic Ach Receptor A1 ANT (converted))	IC50 [8]	EC50 [9]	EC50 [10]	IC50 [11]	EC50 [12]	IC50 [13]	EC50 [14]	IC50 [15]	IC50 [16]	IC50 [7]
COc1ncc(-c2ccc3c(Nc4cc(C(=O)O)cc(C5CCCC5)c4)c(S(=O)(=O)NC4CC4)cnc3c2)c(OC)n1 [Compound 2]	increase intracellular levels of fructose-1,6-bisphosphate (FBP)	31.6 µM	31.6 µM	100 µM	15.8 µM	15.8 µM	15.8 µM	100 µM	100 µM	100 µM	50.1 µM	39.8 µM	31.6 µM	39.8 µM	39.8 µM	100 µM	–
COc1ncc(-c2ccc3c(Nc4cc(Oc5cc(F)cc(F)c5)cc(C(=O)O)c4)c(S(=O)(=O)NC4CC4)cnc3c2)c(OC)n1 [Compound 1]	increase intracellular levels of fructose-1,6-bisphosphate (FBP); also recorded: Increase in fructose-1,6-bisphosphate (FBP)	31.6 µM	31.6 µM	39.8 µM	15.8 µM	15.8 µM	–	100 µM	100 µM	100 µM	50.1 µM	39.8 µM	39.8 µM	39.8 µM	39.8 µM	100 µM	50.1 µM
